Results published in the NIST ThermoML archive (doi:10.1021/acs.jced.8b00524).
Numbers after ± are expanded uncertainties.

Columns and labels:
[1] = xn = mol fraction of the nth substance listed; settings: 100 kPa, Liquid; for viscosity: Concentric cylinders viscometry; for mass density: Vibrating tube method
[2] = 100 kPa, Liquid; for viscosity: Concentric cylinders viscometry; for mass density: Vibrating tube method

Structure (SMILES) | viscosity ([2]; 293.15 K) [mPa·s] | mass density ([2]; 293.15 K) [kg/m3] | viscosity ([2]; 298.15 K) [mPa·s] | mass density ([2]; 298.15 K) [kg/m3] | viscosity ([2]; 303.15 K) [mPa·s] | mass density ([2]; 303.15 K) [kg/m3] | viscosity ([2]; 308.15 K) [mPa·s] | mass density ([2]; 308.15 K) [kg/m3] | viscosity ([2]; 313.15 K) [mPa·s] | mass density ([2]; 313.15 K) [kg/m3] | viscosity ([2]; 318.15 K) [mPa·s] | mass density ([2]; 318.15 K) [kg/m3] | viscosity ([2]; 323.15 K) [mPa·s] | mass density ([2]; 323.15 K) [kg/m3] | further results
CCCCOC(C)=O [butyl ethanoate] + CCCCCCCCCO | – | – | – | – | – | – | – | – | – | – | – | – | – | – | viscosity ([1]; 293.15 K, x1 = 1): 0.732 ± 0.037 mPa·s; mass density ([1]; 293.15 K, x1 = 1): 881.1 ± 10 kg/m3; viscosity ([1]; 298.15 K, x1 = 1): 0.677 ± 0.034 mPa·s; mass density ([1]; 298.15 K, x1 = 1): 876 ± 10 kg/m3; viscosity ([1]; 303.15 K, x1 = 1): 0.628 ± 0.032 mPa·s; mass density ([1]; 303.15 K, x1 = 1): 870.9 ± 10 kg/m3; viscosity ([1]; 308.15 K, x1 = 1): 0.585 ± 0.03 mPa·s; mass density ([1]; 308.15 K, x1 = 1): 865.7 ± 10 kg/m3; viscosity ([1]; 313.15 K, x1 = 1): 0.546 ± 0.028 mPa·s; mass density ([1]; 313.15 K, x1 = 1): 860.5 ± 10 kg/m3; viscosity ([1]; 318.15 K, x1 = 1): 0.512 ± 0.026 mPa·s; mass density ([1]; 318.15 K, x1 = 1): 855.3 ± 10 kg/m3; viscosity ([1]; 323.15 K, x1 = 1): 0.485 ± 0.025 mPa·s; mass density ([1]; 323.15 K, x1 = 1): 850.1 ± 10 kg/m3
CCCCCCCO [heptan-1-ol] | 7.03 ± 0.35 | 822.2 ± 10 | 5.92 ± 0.3 | 818.7 ± 10 | 5.03 ± 0.25 | 815.2 ± 10 | 4.3 ± 0.22 | 811.6 ± 10 | 3.71 ± 0.19 | 808 ± 10 | 3.21 ± 0.16 | 804.4 ± 10 | 2.79 ± 0.14 | 800.7 ± 10 | –
CCCCCCCCCCO [decan-1-ol] | 14.42 ± 0.72 | 829.5 ± 10 | 11.8 ± 0.59 | 826.1 ± 10 | 9.76 ± 0.49 | 822.7 ± 10 | 8.14 ± 0.41 | 819.3 ± 10 | 6.84 ± 0.34 | 815.8 ± 10 | 5.8 ± 0.29 | 812.4 ± 10 | 4.96 ± 0.25 | 808.9 ± 10 | –
CCCCOC(C)=O [butyl ethanoate] + CCCCCCCO | – | – | – | – | – | – | – | – | – | – | – | – | – | – | viscosity ([1]; 293.15 K, x1 = 1): 0.732 ± 0.037 mPa·s; mass density ([1]; 293.15 K, x1 = 1): 881.1 ± 10 kg/m3; viscosity ([1]; 298.15 K, x1 = 1): 0.677 ± 0.034 mPa·s; mass density ([1]; 298.15 K, x1 = 1): 876 ± 10 kg/m3; viscosity ([1]; 303.15 K, x1 = 1): 0.628 ± 0.032 mPa·s; mass density ([1]; 303.15 K, x1 = 1): 870.9 ± 10 kg/m3; viscosity ([1]; 308.15 K, x1 = 1): 0.585 ± 0.03 mPa·s; mass density ([1]; 308.15 K, x1 = 1): 865.7 ± 10 kg/m3; viscosity ([1]; 313.15 K, x1 = 1): 0.546 ± 0.028 mPa·s; mass density ([1]; 313.15 K, x1 = 1): 860.5 ± 10 kg/m3; viscosity ([1]; 318.15 K, x1 = 1): 0.512 ± 0.026 mPa·s; mass density ([1]; 318.15 K, x1 = 1): 855.3 ± 10 kg/m3; viscosity ([1]; 323.15 K, x1 = 1): 0.485 ± 0.025 mPa·s; mass density ([1]; 323.15 K, x1 = 1): 850.1 ± 10 kg/m3
CCCCCCCCO [octan-1-ol] | 9.13 ± 0.46 | 824.9 ± 10 | 7.62 ± 0.38 | 821.4 ± 10 | 6.41 ± 0.32 | 817.9 ± 10 | 5.43 ± 0.27 | 814.4 ± 10 | 4.63 ± 0.23 | 810.9 ± 10 | 3.98 ± 0.2 | 807.3 ± 10 | 3.44 ± 0.17 | 803.7 ± 10 | –
CCCCOC(C)=O [butyl ethanoate] + CCCCCCCCCCO | – | – | – | – | – | – | – | – | – | – | – | – | – | – | viscosity ([1]; 293.15 K, x1 = 1): 0.732 ± 0.037 mPa·s; mass density ([1]; 293.15 K, x1 = 1): 881.1 ± 10 kg/m3; viscosity ([1]; 298.15 K, x1 = 1): 0.677 ± 0.034 mPa·s; mass density ([1]; 298.15 K, x1 = 1): 876 ± 10 kg/m3; viscosity ([1]; 303.15 K, x1 = 1): 0.628 ± 0.032 mPa·s; mass density ([1]; 303.15 K, x1 = 1): 870.9 ± 10 kg/m3; viscosity ([1]; 308.15 K, x1 = 1): 0.585 ± 0.03 mPa·s; mass density ([1]; 308.15 K, x1 = 1): 865.7 ± 10 kg/m3; viscosity ([1]; 313.15 K, x1 = 1): 0.546 ± 0.028 mPa·s; mass density ([1]; 313.15 K, x1 = 1): 860.5 ± 10 kg/m3; viscosity ([1]; 318.15 K, x1 = 1): 0.512 ± 0.026 mPa·s; mass density ([1]; 318.15 K, x1 = 1): 855.3 ± 10 kg/m3; viscosity ([1]; 323.15 K, x1 = 1): 0.485 ± 0.025 mPa·s; mass density ([1]; 323.15 K, x1 = 1): 850.1 ± 10 kg/m3
CCCCCCO [hexan-1-ol] + CCCCOC(C)=O | – | – | – | – | – | – | – | – | – | – | – | – | – | – | viscosity ([1]; 293.15 K, x2 = 0): 5.37 ± 0.27 mPa·s; mass density ([1]; 293.15 K, x2 = 0): 818.7 ± 10 kg/m3; viscosity ([1]; 298.15 K, x2 = 0): 4.58 ± 0.23 mPa·s; mass density ([1]; 298.15 K, x2 = 0): 815.1 ± 10 kg/m3; viscosity ([1]; 303.15 K, x2 = 0): 3.94 ± 0.2 mPa·s; mass density ([1]; 303.15 K, x2 = 0): 811.5 ± 10 kg/m3; viscosity ([1]; 308.15 K, x2 = 0): 3.4 ± 0.17 mPa·s; mass density ([1]; 308.15 K, x2 = 0): 807.9 ± 10 kg/m3; viscosity ([1]; 313.15 K, x2 = 0): 2.95 ± 0.15 mPa·s; mass density ([1]; 313.15 K, x2 = 0): 804.2 ± 10 kg/m3; viscosity ([1]; 318.15 K, x2 = 0): 2.58 ± 0.13 mPa·s; mass density ([1]; 318.15 K, x2 = 0): 800.6 ± 10 kg/m3; viscosity ([1]; 323.15 K, x2 = 0): 2.26 ± 0.11 mPa·s; mass density ([1]; 323.15 K, x2 = 0): 796.8 ± 10 kg/m3
CCCCCCCCO [octan-1-ol] + CCCCOC(C)=O | – | – | – | – | – | – | – | – | – | – | – | – | – | – | viscosity ([1]; 293.15 K, x2 = 0): 9.13 ± 0.46 mPa·s; mass density ([1]; 293.15 K, x2 = 0): 824.9 ± 10 kg/m3; viscosity ([1]; 298.15 K, x2 = 0): 7.62 ± 0.38 mPa·s; mass density ([1]; 298.15 K, x2 = 0): 821.4 ± 10 kg/m3; viscosity ([1]; 303.15 K, x2 = 0): 6.41 ± 0.32 mPa·s; mass density ([1]; 303.15 K, x2 = 0): 817.9 ± 10 kg/m3; viscosity ([1]; 308.15 K, x2 = 0): 5.43 ± 0.27 mPa·s; mass density ([1]; 308.15 K, x2 = 0): 814.4 ± 10 kg/m3; viscosity ([1]; 313.15 K, x2 = 0): 4.63 ± 0.23 mPa·s; mass density ([1]; 313.15 K, x2 = 0): 810.9 ± 10 kg/m3; viscosity ([1]; 318.15 K, x2 = 0): 3.98 ± 0.2 mPa·s; mass density ([1]; 318.15 K, x2 = 0): 807.3 ± 10 kg/m3; viscosity ([1]; 323.15 K, x2 = 0): 3.44 ± 0.17 mPa·s; mass density ([1]; 323.15 K, x2 = 0): 803.7 ± 10 kg/m3
CCCCCCO [hexan-1-ol] | 5.37 ± 0.27 | 818.7 ± 10 | 4.58 ± 0.23 | 815.1 ± 10 | 3.94 ± 0.2 | 811.5 ± 10 | 3.4 ± 0.17 | 807.9 ± 10 | 2.95 ± 0.15 | 804.2 ± 10 | 2.58 ± 0.13 | 800.6 ± 10 | 2.26 ± 0.11 | 796.8 ± 10 | –
CCCCCCCCCO [nonan-1-ol] | 11.41 ± 0.57 | 827.5 ± 10 | 9.43 ± 0.47 | 824 ± 10 | 7.86 ± 0.39 | 820.5 ± 10 | 6.61 ± 0.33 | 817.1 ± 10 | 5.59 ± 0.28 | 813.6 ± 10 | 4.78 ± 0.24 | 810.1 ± 10 | 4.1 ± 0.21 | 806.5 ± 10 | –
CCCCOC(C)=O [butyl ethanoate] | 0.732 ± 0.037 | 881.1 ± 10 | 0.677 ± 0.034 | 876 ± 10 | 0.628 ± 0.032 | 870.9 ± 10 | 0.585 ± 0.03 | 865.7 ± 10 | 0.546 ± 0.028 | 860.5 ± 10 | 0.512 ± 0.026 | 855.3 ± 10 | 0.485 ± 0.025 | 850.1 ± 10 | –
